The values below come from the RepoRT retention time repository (doi:10.1021/acs.analchem.2c02893).

A short description of the data set: RP, Thermo Scientific Acclaim RSLC 120 C18, 100 × 2.1 mm, 2.2 µm, 30 °C, 0.2 mL/min, estimated dead time 1.1 min; A: 90% water + 10% methanol + 0.01% formic acid + 5 mM ammonium formate, pH 3.61; B: methanol + 0.01% formic acid + 5 mM ammonium formate, pH 3.61; gradient (min/%B) 0/1 1/1 2/39 13/99.9 15/99.9 15.1/1 20.1/1. The following applies: stereoisomer not certain.
As for `O=C(O)c1cc(Oc2ccc(Cl)cc2Cl)ccc1[N+](=O)[O-]` [Bifenox acid], the LC retention time was 8.71 min.
The value for `COC(=O)c1cc(Oc2ccc(Cl)cc2Cl)ccc1[N+](=O)[O-]` [Bifenox] was 11.5 min; that for `Cc1c(COC(=O)C2C(C=C(Cl)C(F)(F)F)C2(C)C)cccc1-c1ccccc1` (stereo not drawn) [Bifenthrin] was 14.1 min; that for `CC(C)=CC1C(C(=O)OCc2coc(Cc3ccccc3)c2)C1(C)C` (stereo not drawn) [Bioresmethrin] was 13.6 min.
With `O=C(O)CCCCC1SCC2NC(=O)NC21` (stereo not drawn) [Biotin] the figure was 4.44 min; with `OC(CCN1CCCCC1)(c1ccccc1)C1CC2C=CC1C2` (stereo not drawn) [Biperidene], 7.63 min.
`CC(=O)Oc1ccc(C(c2ccc(OC(C)=O)cc2)c2ccccn2)cc1` [Bisacodyl]: the LC retention time was 8.92 min.
As to `CC(C)(c1ccc(OCC2CO2)cc1)c1ccc(OCC2CO2)cc1` (stereo not drawn) [Bisphenol A diglycidyl ether], the LC retention time was 10.8 min.
As to `O=S(=O)(c1ccc(O)cc1)c1ccc(O)cc1` [Bisphenol S], the LC retention time is 5.35 min.
The value for `CC(C)(c1ccc(OCC(O)CO)cc1)c1ccc(OCC2CO2)cc1` (stereo not drawn) [Bisphenol<U+00A0>A (2,3-dihydroxypropyl) glycidyl ether] was 9.52 min; that for `CC(C)(c1ccc(OCC(O)CCl)cc1)c1ccc(OCC2CO2)cc1` (stereo not drawn) [Bisphenol<U+00A0>A (3-chloro-2-hydroxypropyl) glycidyl ether] was 11.1 min; that for `CC(C)(c1ccc(OCC(O)CCl)cc1)c1ccc(OCC(O)CCl)cc1` (stereo not drawn) [Bisphenol<U+00A0>A bis(3-chloro-2-hydroxypropyl) ether] was 11.4 min.
The value for `COc1cc(OC)nc(Oc2cccc(Oc3nc(OC)cc(OC)n3)c2C(=O)O)n1` [Bispyribac] was 8.86 min; that for `CC(C)(C)C(O)C(Oc1ccc(-c2ccccc2)cc1)n1cncn1` (stereo not drawn) [Bitertanol] was 11.3 min; that for `CC12C=CC(=O)C=C1CCC1C2CCC2(C)C(O)CCC12` (stereo not drawn) [Boldenone] was 9.03 min.
The value for `CCN(CC)CCCOC(=O)C1(c2ccccc2)CC2CCC1C2` (stereo not drawn) [Bornaprine] was 8.54 min.
Turning to `O=C(Nc1ccccc1-c1ccc(Cl)cc1)c1cccnc1Cl` [Boscalid], the LC retention time is 9.4 min.
With `COc1ccccc1Oc1c(NS(=O)(=O)c2ccc(C(C)(C)C)cc2)nc(-c2ncccn2)nc1OCCO` [Bosentan], the LC retention time was 9.96 min.
Take `CNC(C)C(=O)c1ccc(Br)cc1` (stereo not drawn) [Brefedrone]: the LC retention time was 5.05 min.
With `O=c1oc2ccccc2c(O)c1C1CC(c2ccc(-c3ccc(Br)cc3)cc2)Cc2ccccc21` (stereo not drawn) [Brodifacoum] the figure was 13 min; with `CCC(C)n1c(=O)[nH]c(C)c(Br)c1=O` (stereo not drawn) [Bromacil], 7.07 min; with `O=c1oc2ccccc2c(O)c1C(CC(O)c1ccc(-c2ccc(Br)cc2)cc1)c1ccccc1` (stereo not drawn) [Bromadiolone], 11.5 min.
The value for `O=C1CN=C(c2ccccn2)c2cc(Br)ccc2N1` [Bromazepam] was 7.28 min; that for `CN(Cc1cc(Br)cc(Br)c1N)C1CCCCC1` [Bromhexine] was 10 min.
The value for `CC(N)Cc1c2ccoc2c(Br)c2ccoc12` (stereo not drawn) [Bromodragonfly] was 7.41 min.
For `COP(=S)(OC)Oc1cc(Cl)c(Br)cc1Cl` [Bromophos (Bromophos-methyl)], the LC retention time was 12.7 min.
The value for `CCOP(=S)(OCC)Oc1cc(Cl)c(Br)cc1Cl` [Bromophos-ethyl] was 13.5 min; that for `CC(C)OC(=O)C(O)(c1ccc(Br)cc1)c1ccc(Br)cc1` [Bromopropylate] was 12.5 min.
